Where a name gives a salt, the structure may show the parent alone.
System: T1, 1N4R p-tau
T1 construct: made in house; host or cells: E. coli (PIMAX system)
Test: p-tau aggregation modulator screen of 1280-compound library (ThS fluorescence net change over 16 h);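 note: 30 µM compound with 6 µM p-tau over 16 h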
Type: biochemical
Details: not given

First: O=[N+]([O-])O[C@@H]1CO[C@H]2[C@@H]1OC[C@@H]2O [Isosorbide mononitrate]
Second: Hydralazine hydrochloride
The ThS net change of the first is higher: 477 for the first, 214 for the second.

Same assay, conditions: 1280-compound library screen; ThS fluorescence net change over 16 h

Compared with `CC(C)(S)C(N)C(=O)O` (racemic) [D,L-Penicillamine], `CC(C)(C)NCC(O)COc1cccc2c1CC(O)C(O)C2` (stereo not shown) [Nadolol] is higher in ThS net change: 385 for the first, 411 for the second.

Compared with `Cl.O=C(OCC(O)CO)c1ccccc1Nc1ccnc2cc(Cl)ccc12` (stereo not shown) [Glafenine hydrochloride], `O=C(O)Cc1sc(-c2ccccc2)nc1-c1ccc(Cl)cc1` [Fentiazac] is lower in ThS net change: 412 for the first, 382 for the second.

First: CC(=O)Nc1ccc(O)cc1 [Acetaminophen]
Second: CN(CCOc1ccc(NS(C)(=O)=O)cc1)CCc1ccc(NS(C)(=O)=O)cc1 [Dofetilide]
The ThS net change of the first is lower: 385 for the first, 388 for the second.

Compared with `CNCCc1ccccn1.CS(=O)(=O)O.CS(=O)(=O)O` [Betahistine mesylate], `CC(CNC1CCCCC1)OC(=O)c1ccccc1` (stereo not shown) [Hexylcaine hydrochloride] is higher in ThS net change: 378 for the first, 393 for the second.

Going from `Cn1c(=O)c2[nH]cnc2n(C)c1=O` [Aminophylline] to `CC1CCc2c(N3CCC(O)CC3)c(F)cc3c(=O)c(C(=O)O)cn1c23` (stereo not shown) [Nadifloxacin], the ThS net change falls from 403 to 399.

Same assay, conditions: 1280-compound library screen; […]

Compared with `C[C@]12CC[C@H]3C(=CCc4cc(O)ccc43)[C@@H]1CCC2=O` [Equilin], `CN1CCc2c(c3ccccc3n2Cc2ccccc2)C1.O=S(=O)(O)c1cccc2c(S(=O)(=O)O)cccc12` [Mebhydroline 1,5-naphtalenedisulfonate] is lower in ThS net change: 389 for the first, 385 for the second.

In the case of `Cc1ccsc1/C=C/C1=NCCCN1C` [Morantel tartrate], the ThS net change was 398.

Same assay, conditions: library screen, ThS fluorescence net change over 16 h with p-tau

Going from `CCCN1C[C@H](CSC)C[C@@H]2c3cccc4[nH]cc(c34)C[C@H]21` [Pergolide mesylate] to `C[C@]12C=CC(=O)C=C1CC[C@H]1[C@@H]3C[C@@H](O)[C@](O)(C(=O)CO)[C@@]3(C)C[C@H](O)[C@@]12F` [Triamcinolone], the ThS net change falls from 279 to 259.

Compound `CCn1cc(C(=O)O)c(=O)c2cc3c(cc21)OCO3` [Oxolinic acid] has a ThS net change of 313.

Same assay, conditions: p-tau aggregation modulator screen of 1280-compound library; ThS fluorescence net change

First: CN1CCC(=C2c3ccccc3C=Cc3ccccc32)CC1 [Cyproheptadine hydrochloride]
Second: CNCCC=C1c2ccccc2C=Cc2ccccc21 [Norcyclobenzaprine]
The ThS net change of the first is higher: 375 for the first, 372 for the second.

First: CCC[C@@H]1C[C@@H](C(=O)N[C@@H]([C@H]2O[C@H](SC)[C@H](O)[C@@H](O)[C@H]2O)[C@H](C)Cl)N(C)C1 [Clindamycin hydrochloride]
Second: NC[C@H]1O[C@H](O[C@H]2[C@H](O)[C@@H](O[C@H]3O[C@H](CO)[C@@H](O)[C@H](N)[C@H]3O)[C@H](N)C[C@@H]2N)[C@H](O)[C@@H](O)[C@@H]1O [Kanamycin A sulfate]
The ThS net change of the first is lower: 344 for the first, 374 for the second.

First: NNCCc1ccccc1 [Phenelzine sulfate]
Second: c1ccc(CNc2ncnc3nc[nH]c23)cc1 [Aminopurine, 6-benzyl]
The ThS net change of the first is higher: 369 for the first, 348 for the second.

Compared with `CC(=O)Oc1cc(C(F)(F)F)ccc1C(=O)O` [Triflusal], `Cc1oncc1C(=O)Nc1ccc(C(F)(F)F)cc1` [Leflunomide] is higher in ThS net change: 343 for the first, 344 for the second.

Going from `CC(=O)N(CC(O)CO)c1c(I)c(C(=O)NCC(O)CO)c(I)c(C(=O)NCC(O)CO)c1I` (stereo not shown) [Iohexol] to `NCCCC[C@H](N[C@@H](CCc1ccccc1)C(=O)O)C(=O)N1CCC[C@H]1C(=O)O` [Lisinopril], the ThS net change falls from 345 to 328.

First: CN(C)CCOC(C)(c1ccccc1)c1ccccn1 (stereo not shown) [Doxylamine succinate]
Second: Cc1nnc(NS(=O)(=O)c2ccc(N)cc2)s1 [Sulfamethizole]
The ThS net change of the first is higher: 367 for the first, 365 for the second.

`CCCCC(CC)CN1CN(CC(CC)CCCC)CC(C)(N)C1` (stereo not shown) [Hexetidine] gave a ThS net change of 353.

Same assay, conditions: p-tau aggregation modulator screen of the compound library, ThS fluorescence net change

First: CC(C)COCC(CN(Cc1ccccc1)c1ccccc1)N1CCCC1 (stereo not shown) [Bepridil hydrochloride]
Second: Tyloxapol
The ThS net change of the first is lower: 418 for the first, 577 for the second.

For `CN1CCC(=C2c3ccccc3CCc3cccnc32)CC1` [Azatadine maleate], the ThS net change was 417.
